Where “and” joins values, the source holds several entries; their conditions need not be identical. Equal entries are not always repeated. Each block holds one compound with its values, some of them ahead of it. Calls of active or inactive are those of the source.
Columns and labels:
[1] = target: T1, Bcl-2-related protein A1 (Mus musculus, UniProt Q07440); assay: displacement of Bid BH3 peptide from Bfl-1 – biochemical, fluorescence polarization, FITC-Bid, mouse, primary screen (AID 432)
T1 sequence (Q07440 whole entry): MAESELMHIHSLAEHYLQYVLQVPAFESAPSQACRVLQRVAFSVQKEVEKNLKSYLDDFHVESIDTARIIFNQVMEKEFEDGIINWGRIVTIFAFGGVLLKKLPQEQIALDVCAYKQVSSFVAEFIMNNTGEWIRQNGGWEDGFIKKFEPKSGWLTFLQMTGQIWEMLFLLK

[2] = target: T1, Bcl-2-related protein A1; assay: Bfl-1 binding inhibitors, SAR follow-up, biochemical, fluorescence polarization (AID 1070)
[3] = target: T2, Tyrosine-protein phosphatase non-receptor type 7 (Homo sapiens, UniProt P35236); assay: HePTP tyrosine phosphatase activity blockers – biochemical, absorbance, leukemia target, primary screen (AID 521); type: functional
T2 sequence (P35236 whole entry): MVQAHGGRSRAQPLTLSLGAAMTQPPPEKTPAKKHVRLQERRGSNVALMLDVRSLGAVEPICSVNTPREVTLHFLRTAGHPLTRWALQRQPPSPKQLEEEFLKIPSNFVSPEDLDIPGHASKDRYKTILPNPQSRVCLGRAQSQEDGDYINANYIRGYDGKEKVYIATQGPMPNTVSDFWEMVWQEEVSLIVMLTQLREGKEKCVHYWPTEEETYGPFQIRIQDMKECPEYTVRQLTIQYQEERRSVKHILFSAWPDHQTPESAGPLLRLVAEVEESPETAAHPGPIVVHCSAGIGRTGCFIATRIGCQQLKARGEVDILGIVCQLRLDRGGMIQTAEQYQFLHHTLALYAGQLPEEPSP

[4] = target: T1, Bcl-2-related protein A1; assay: small-molecule antagonists of Bfl-1/BH3 interaction – biochemical, TR-FRET, mouse Bfl-1, confirmation (AID 621);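 further: TR-FRET binding of GST-Bfl-1 to FITC-labelled Bid peptide via terbium antibody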
[5] = target: Glyceraldehyde-3-phosphate dehydrogenase (Homo sapiens, UniProt P04406)
[6] = HPDE-C7 pancreatic duct cell viability loss – fluorescence, HTS (AID 430); type: functional, cell-based; conditions: Homo sapiens
[7] = viability of uninfected HEp-2 cells – cell-based, HTS, cytotoxicity control for RSV inhibitor project, dose response (AID 2410); type: functional; conditions: human respiratory syncytial virus
[8] = viability loss of HPDE-C7K cells – cell-based, fluorescence, HTS, primary screen (AID 431); type: functional; conditions: Homo sapiens
[9] = target: NADPH oxidase 1 (Homo sapiens, UniProt Q9Y5S8); assay: Late-stage luminescence-based cell-based dose response assay to identify inhibitors of NADPH oxidase 1 (NOX1): Purchased analogs 2.; type: functional
[10] = target: Sphingosine 1-phosphate receptor 2 (Homo sapiens, UniProt O95136); assay: Dose Response Cell Based Assay for Antagonists of the S1P2 Receptor. [Related pubchem assays: 856, 736 ]; type: functional
[11] = target: T3, Protein skinhead-1 (Caenorhabditis elegans, UniProt P34707); type: functional
T3 sequence (P34707 whole entry): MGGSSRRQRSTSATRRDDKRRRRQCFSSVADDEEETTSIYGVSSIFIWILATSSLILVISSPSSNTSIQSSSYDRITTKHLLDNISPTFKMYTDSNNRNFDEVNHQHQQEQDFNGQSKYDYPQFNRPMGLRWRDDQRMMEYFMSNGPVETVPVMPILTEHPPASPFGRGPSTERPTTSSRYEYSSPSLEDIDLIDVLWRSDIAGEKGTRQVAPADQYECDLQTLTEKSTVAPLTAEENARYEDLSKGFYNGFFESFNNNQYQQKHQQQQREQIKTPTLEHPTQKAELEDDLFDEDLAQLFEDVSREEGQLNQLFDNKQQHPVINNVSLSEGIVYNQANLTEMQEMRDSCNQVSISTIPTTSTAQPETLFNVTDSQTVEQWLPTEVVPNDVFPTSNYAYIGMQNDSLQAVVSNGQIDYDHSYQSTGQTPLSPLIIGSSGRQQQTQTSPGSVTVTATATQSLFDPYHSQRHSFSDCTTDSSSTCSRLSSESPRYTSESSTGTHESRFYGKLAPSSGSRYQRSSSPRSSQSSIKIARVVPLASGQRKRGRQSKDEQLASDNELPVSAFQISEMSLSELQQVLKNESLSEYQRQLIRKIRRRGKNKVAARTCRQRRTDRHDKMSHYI

[12] = test system: Vero; assay: mammalian cell viability reduction – secondary assay, cytotoxicity control for West Nile virus antiviral project, dose response (AID 1650); type: functional; conditions: Chlorocebus sabaeus
[13] = reduced cellular PGC1a acetyl-lysine signal – cell-based, cherry-picked samples, dose response (AID 720514); type: functional;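 further: potency may reflect raised or lowered acetylation signal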
[14] = target: Voltage-gated inwardly rectifying potassium channel KCNH2 (Homo sapiens, UniProt Q12809); assay: concentration-dependent hERG rescue from blockers – cell-based, thallium flux, dose response (AID 2121); type: ADME
[15] = target: Cytochrome P450 2C19 (Homo sapiens, UniProt P33261); assay: qHTS Assay for Inhibitors and Substrates of Cytochrome P450 2C19. [Related pubchem assays: 410 ]; type: ADME; conditions: read-out: Potency
[16] = target: Cytochrome P450 2D6 (Homo sapiens, UniProt P10635); assay: qHTS Assay for Inhibitors and Substrates of Cytochrome P450 2D6. [Related pubchem assays: 410 ]; type: ADME; conditions: read-out: Potency
[17] = target: Cytochrome P450 3A4 (Homo sapiens, UniProt P08684); conditions: Potency;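 further: confirmatory qHTS run detecting inhibitors and substrates of CYP3A4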
Cytochrome P450 3A4, sequence (P08684 whole entry): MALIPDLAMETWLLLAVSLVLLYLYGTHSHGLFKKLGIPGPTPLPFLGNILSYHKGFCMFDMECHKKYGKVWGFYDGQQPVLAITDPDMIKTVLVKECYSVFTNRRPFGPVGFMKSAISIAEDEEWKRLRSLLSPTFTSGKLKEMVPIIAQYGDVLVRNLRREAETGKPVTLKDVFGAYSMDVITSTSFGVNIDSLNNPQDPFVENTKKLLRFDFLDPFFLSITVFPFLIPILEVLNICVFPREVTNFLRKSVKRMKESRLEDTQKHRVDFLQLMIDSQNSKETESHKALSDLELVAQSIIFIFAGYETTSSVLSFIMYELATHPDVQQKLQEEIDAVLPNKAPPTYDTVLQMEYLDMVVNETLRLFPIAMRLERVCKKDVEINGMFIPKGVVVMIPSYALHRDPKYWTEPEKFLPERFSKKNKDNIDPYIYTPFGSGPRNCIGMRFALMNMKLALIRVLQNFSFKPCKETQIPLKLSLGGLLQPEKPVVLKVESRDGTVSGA

Glyceraldehyde-3-phosphate dehydrogenase, sequence (P04406 whole entry): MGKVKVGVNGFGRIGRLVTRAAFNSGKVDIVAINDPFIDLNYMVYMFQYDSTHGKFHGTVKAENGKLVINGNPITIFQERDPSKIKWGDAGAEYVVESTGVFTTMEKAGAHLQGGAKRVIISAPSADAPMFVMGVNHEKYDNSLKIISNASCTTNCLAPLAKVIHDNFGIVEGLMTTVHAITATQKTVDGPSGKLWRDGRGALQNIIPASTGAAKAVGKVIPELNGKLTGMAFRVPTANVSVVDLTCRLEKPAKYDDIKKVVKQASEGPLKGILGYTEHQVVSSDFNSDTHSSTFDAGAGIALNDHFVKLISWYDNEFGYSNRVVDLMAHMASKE
Voltage-gated inwardly rectifying potassium channel KCNH2, sequence (Q12809 whole entry): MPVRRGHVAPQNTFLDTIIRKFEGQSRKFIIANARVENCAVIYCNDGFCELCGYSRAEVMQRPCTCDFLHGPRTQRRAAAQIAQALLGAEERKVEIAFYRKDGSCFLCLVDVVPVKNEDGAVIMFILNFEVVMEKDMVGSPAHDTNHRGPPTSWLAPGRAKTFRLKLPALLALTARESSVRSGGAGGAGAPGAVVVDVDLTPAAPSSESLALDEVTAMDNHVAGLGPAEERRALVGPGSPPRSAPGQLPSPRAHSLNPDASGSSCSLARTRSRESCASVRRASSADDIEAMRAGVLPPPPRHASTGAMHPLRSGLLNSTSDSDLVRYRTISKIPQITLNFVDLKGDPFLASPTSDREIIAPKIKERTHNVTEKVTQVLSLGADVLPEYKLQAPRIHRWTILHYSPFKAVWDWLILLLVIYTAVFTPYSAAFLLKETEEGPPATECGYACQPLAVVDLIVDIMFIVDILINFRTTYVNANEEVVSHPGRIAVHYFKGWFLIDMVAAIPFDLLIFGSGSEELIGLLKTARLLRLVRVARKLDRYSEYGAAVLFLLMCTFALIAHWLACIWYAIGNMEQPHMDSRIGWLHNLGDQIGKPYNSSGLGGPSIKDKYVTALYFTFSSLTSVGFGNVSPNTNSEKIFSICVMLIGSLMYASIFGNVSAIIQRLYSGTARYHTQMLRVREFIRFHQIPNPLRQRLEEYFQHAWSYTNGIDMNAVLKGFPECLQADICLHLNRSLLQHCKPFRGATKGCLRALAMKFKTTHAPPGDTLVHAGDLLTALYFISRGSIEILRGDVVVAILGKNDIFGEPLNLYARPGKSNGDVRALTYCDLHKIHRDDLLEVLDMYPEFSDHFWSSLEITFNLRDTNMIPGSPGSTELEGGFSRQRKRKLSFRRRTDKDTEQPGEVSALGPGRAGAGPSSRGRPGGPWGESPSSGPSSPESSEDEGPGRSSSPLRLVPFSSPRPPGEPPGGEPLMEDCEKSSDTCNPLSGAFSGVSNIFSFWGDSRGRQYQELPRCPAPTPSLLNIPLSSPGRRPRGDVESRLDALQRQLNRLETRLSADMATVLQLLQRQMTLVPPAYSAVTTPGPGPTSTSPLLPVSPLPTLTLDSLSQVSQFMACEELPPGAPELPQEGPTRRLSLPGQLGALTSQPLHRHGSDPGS
Cytochrome P450 2C19, sequence (P33261 whole entry): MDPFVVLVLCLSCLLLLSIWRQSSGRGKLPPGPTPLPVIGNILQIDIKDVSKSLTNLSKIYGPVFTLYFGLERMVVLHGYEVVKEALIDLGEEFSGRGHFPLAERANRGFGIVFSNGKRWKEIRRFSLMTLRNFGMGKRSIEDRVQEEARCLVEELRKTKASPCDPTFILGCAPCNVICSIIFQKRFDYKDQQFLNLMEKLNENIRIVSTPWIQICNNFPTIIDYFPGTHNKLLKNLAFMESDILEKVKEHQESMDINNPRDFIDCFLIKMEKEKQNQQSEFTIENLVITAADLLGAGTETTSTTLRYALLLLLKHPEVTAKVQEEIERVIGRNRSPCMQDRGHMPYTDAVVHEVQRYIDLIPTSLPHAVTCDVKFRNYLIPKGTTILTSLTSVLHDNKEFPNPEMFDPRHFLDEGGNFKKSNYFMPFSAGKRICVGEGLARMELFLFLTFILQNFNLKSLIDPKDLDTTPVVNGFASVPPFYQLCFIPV
Cytochrome P450 2D6, sequence (P10635 whole entry): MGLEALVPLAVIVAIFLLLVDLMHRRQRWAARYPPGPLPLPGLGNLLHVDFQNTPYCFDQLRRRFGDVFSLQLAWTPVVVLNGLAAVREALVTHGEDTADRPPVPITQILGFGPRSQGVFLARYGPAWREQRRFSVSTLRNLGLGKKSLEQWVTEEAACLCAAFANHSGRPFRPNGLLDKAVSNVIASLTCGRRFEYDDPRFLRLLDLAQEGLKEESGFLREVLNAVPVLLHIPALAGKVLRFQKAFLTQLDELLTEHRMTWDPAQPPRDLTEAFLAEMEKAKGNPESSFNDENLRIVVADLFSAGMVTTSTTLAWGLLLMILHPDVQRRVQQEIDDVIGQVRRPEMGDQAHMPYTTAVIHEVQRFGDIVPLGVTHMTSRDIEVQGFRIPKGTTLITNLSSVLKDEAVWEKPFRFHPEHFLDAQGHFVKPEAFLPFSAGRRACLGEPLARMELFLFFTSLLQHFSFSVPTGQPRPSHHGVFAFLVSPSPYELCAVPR
NADPH oxidase 1, sequence (Q9Y5S8 whole entry): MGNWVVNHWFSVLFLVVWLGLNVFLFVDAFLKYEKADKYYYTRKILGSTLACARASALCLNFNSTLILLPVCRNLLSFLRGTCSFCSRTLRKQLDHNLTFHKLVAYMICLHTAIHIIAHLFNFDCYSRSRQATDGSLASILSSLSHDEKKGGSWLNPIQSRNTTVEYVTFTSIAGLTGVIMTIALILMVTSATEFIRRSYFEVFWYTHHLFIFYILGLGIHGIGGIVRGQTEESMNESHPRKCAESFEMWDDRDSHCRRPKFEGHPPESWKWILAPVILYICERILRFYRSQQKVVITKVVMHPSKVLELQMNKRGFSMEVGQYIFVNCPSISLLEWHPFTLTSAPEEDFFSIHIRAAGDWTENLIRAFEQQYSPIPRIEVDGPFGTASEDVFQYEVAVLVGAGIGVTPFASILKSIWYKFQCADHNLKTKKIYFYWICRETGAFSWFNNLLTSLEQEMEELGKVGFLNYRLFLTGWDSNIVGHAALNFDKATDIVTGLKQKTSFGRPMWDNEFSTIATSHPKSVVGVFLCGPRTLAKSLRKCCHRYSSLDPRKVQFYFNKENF
Sphingosine 1-phosphate receptor 2, sequence (O95136 whole entry): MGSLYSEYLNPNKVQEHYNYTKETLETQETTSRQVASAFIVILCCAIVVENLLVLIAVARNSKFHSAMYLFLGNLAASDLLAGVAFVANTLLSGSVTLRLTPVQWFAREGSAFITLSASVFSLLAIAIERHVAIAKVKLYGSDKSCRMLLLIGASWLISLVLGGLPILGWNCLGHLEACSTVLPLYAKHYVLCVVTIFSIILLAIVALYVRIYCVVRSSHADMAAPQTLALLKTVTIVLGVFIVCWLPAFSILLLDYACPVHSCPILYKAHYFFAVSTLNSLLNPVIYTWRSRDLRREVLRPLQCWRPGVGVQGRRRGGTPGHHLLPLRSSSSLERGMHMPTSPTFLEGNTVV

SMILES: Cc1oc(C)c2c(=O)ccc3c(c12)OC(N)=C(C#N)C3c1ccc(F)cc1 (configuration not stated)
- EC50 [6]: 10.3 µM (active)
- CC50 [7]: 21.6 µM (active)
- EC50 [8]: 9.61 µM (active)

SMILES: CCOC(=O)C(CC)(CC)C(=O)/C=C/c1ccc(Br)cc1
- CC50 [12]: 40.6 µM (active)
- AC50 [13]: 20.6 µM (active)

SMILES: CCCn1c(SCC(N)=O)nc2c(c1=O)C1(CCCC1)Cc1ccccc1-2
- EC50 [14]: 4.67 µM (active)

SMILES: CCCCCCC#CC1C=CC(OC(C)=O)C(COC(C)=O)O1 (configuration not stated)
- AC50 [15]: 3.98 µM (inconclusive)
- AC50 [16]: 7.94 µM (inconclusive)
- AC50 [17]: 3.98 µM (inconclusive)

More lines, now with the values ahead:

- IC50 [1]: 6.15 µM (active)
- IC50 [2]: 3.85 µM (active)
- IC50 [3]: 2.18 µM (active)
- IC50 [4]: 4.45 µM (active) and 3.6 µM (active)
- IC50 [5]: > 100 µM (not active)
SMILES: COc1ccc2nc(O)c(-c3noc(-c4ccc(F)cc4)n3)cc2c1

- IC50 [9]: 0.725 µM (active)
SMILES: S=C(NNC(=S)Nc1ccc(Cl)cc1)Nc1ccccc1

- IC50 [10]: 4.5 µM (active)
- IC50 [11]: > 100 µM (inactive)
SMILES: Cc1ccc(NC2=Nc3ccccc3N3C2=Nc2c(c(C)nn2-c2ccccc2)C3c2ccc(O)c(O)c2)cc1 (configuration not stated)
